Measured values: patent US10253002B2, “Compounds and methods of treating infections” (Neoculi Pty Ltd., priority 2013, dated 2019)

Assays:
Staphylococcus aureus [1] = details: control strain Staphylococcus aureus ATCC 29213; cited from earlier work
[2] = tested on: RNA synthesis in S. aureus ATCC 29213; test: Macromolecular synthesis assay: RNA synthesis ([3H] uridine); format: cell-based, Staphylococcus aureus; details: 0.25 to 8 fold the MIC; rifampicin positive control
Method: Cells were grown at 35° C. overnight on Trypticase Soy agar. A colony from the plate was used to inoculate 10 ml of Mueller Hinton broth II (MHBII), and the culture was grown to early exponential growth phase (OD600==0.2 to 0.3) while incubating in a shaker at 35° C. and 200 rpm.
When cells reached early exponential phase, 100 μL of culture was added to triplicate wells containing various concentrations of test compound or control antibiotics (5 μL) at 20× the final concentration in 100% DMSO. A 5% DMSO treated culture served as the “no drug” control for all experiments. Cells were added in MHBII at 105% to account for the volume of drug added to each reaction or in M9 minimal medium for protein synthesis reactions. Following 15 min incubation at room temperature, either [^3H] thymidine (DNA synthesis), [^3H] uridine (RNA synthesis) or [^3H] leucine (protein synthesis) was added at 0.5-1.0 μCi per reaction, depending on the experiment. Reactions were allowed to proceed at room temperature for 15-30 min and then stopped by adding 12 μL of cold 5% trichloroacetic acid (TCA) or 5% TCA/2% casamino acids (protein synthesis only). […] After washing three times with 5 ml of cold 5% TCA, the filters were rinsed two times with 5 mL 100% ethanol, allowed to dry, and then counted using a Beckman LS3801 liquid scintillation counter.

[3] = Bioassay ranking of the analogues tested; details: M + R (MRSA and VRE combined)
S. aureus KC01 = test: Kill kinetics assay, Example 8; format: cell-based, Staphylococcus aureus
Method: (§1) S. aureus KC01 and E. faecalis USA01, not determined to be MRSA or VRE, respectively, were grown overnight on Columbia SBA at 37° C. A few colonies of bacteria were then suspended in CAMHB (cation-adjusted Mueller Hinton broth) and adjusted to OD600 of 0.08 to 0.10. The bacterial suspension was diluted 1:10. […] The tubes were incubated at 37° C., with constant shaking. In order to determine the number of viable bacteria present at various time points, a 100 μL aliquot was removed from each tube and diluted. Then, 100 μL of each dilution were spread onto colony count agar, in duplicate, and incubated for 48 h at 37° C. After 24 h the numbers of colonies present on each plate were counted and therefore the number of viable bacteria present in the original suspension enumerated. Plates were re-checked after 48 hours.

E. faecalis USA01 = test: Kill kinetics assay, Example 8; format: cell-based, Enterococcus faecalis
Method: as §1

Staphylococcus aureus [4] = test: Mouse skin wound infection model, topical treatment; format: in vivo, mice; details: 14 treatments
Text: Preliminary studies prior to the conduct of the current study established a new method of skin infection arising from a detailed study of the models mentioned above. Briefly, study mice are anaesthetised, a patch of dorsal skin is clipped to reveal the skin and a circular area of skin is removed with a hand held punch, leaving a wound on the dorsum with a central cavity. The wound is infected with a known number of the challenge organism. Approximately four to six hours after infection, the wound is either treated topically with a vehicle formulation or an active formulation. The infected skin wound is retreated every 12 hours for a total of 14 treatments. Mice are humanely euthanased, the area of the original infected wound is dissected and removed and its bacterial content quantified by standard microbiologic tests. In this way, the change in bacterial concentration due to treatment with the active formulation can be readily determined by examining the reduction in bacterial burden compared with the vehicle control. Fresh cultures of bacteria (Staphylococcus aureus) were grown on Sheep Blood Agar at 37° C. for 16-18 hours. A few typical colonies were selected and suspended in 10 ml of Tryptic Soy Broth and incubated overnight in a shaking incubator (240 rpm) at 37° C. The overnight suspension was vortexed and diluted (1:100) in fresh Tryptic soy broth (100 μl [0.1 ml] in 9.9 ml broth). The fresh suspension was incubated for 3 hours in a shaking incubator (as above) in order to obtain mid-logarithmic phase bacteria. Bacteria were pelleted through centrifugation at 7,500 rpm for 10 mins. Broth supernatant was removed and bacteria suspended in 10 ml Phosphate Buffered Saline (PBS). These steps were repeated a further two times. The density of the suspension was checked by measuring absorbance at 600 nm, using a spectrophotometer with saline as a blank, to confirm the target density at a reading of approximately 0.100, consistent with a bacterial density of 2.5×10^7 CFU/ml. The suspension was placed into a rack placed into a lockable transport box with an ice brick to maintain refrigeration during transport, followed by storage in cool room upon arrival at the mouse skin infection laboratory. Final suspension was mixed thoroughly before inoculating the skin wounds created in mice. […] Eyes of each anaesthetised mouse were covered with veterinary eye lubricant in order to prevent corneal dehydration. Each mouse removed from induction chamber and placed onto surgical area, in front of individual aesthetic nose cone. While under anaesthesia each mouse was monitored for assessment of depth of anaesthesia (response to pain, blink reflex, skeletal muscle tone) and respiratory and cardiac function. Back skin hair was shaved from surgical area with mechanical clippers. […] Once the iodine solution was dry, a subcutaneous injection of the nonsteroidal anti-inflammatory agent meloxicam was administered. Dorsal skin was pinched gently to allow creation of a circular full-thickness wound using ear punch/biopsy punch. […] Once the bacterial suspension was dry, mice were placed into individual recovery boxes labelled with the mouse number. The time of inoculation was recorded. Initial body weights of each mouse were recorded on the appropriate score sheet. Mice recovered to full consciousness within 5 minutes. Recovered mice were returned to individual housing and monitored hourly for post-surgical or anaesthetic complications. […] Each ointment container was weighted prior to administration and the weight recorded. Each mouse was carefully restrained. […] The weight of the ointment container post-administration was recorded. […] At the end of the 7 day skin wound assessment period, all test mice were euthanased prior to wound collection for post mortem examination. The skin wound was dissected from the dorsum of each mouse. The sample was placed in a sample tube and weighed before 1 ml PBS and sterile tissue homogenisation beads were added. […]

[5] = water containing 4% DMSO, following initial dilution in 100% DMSO; recent independent research; cited from earlier work

SMILES	Acceptable MIC range for Ampicillin (Staphylococcus aureus [1]) [µg/mL]	inhibition of RNA synthesis [2]	M + R [3] [µg/mL]	reduction in bacterial numbers from initial numbers (S. aureus KC01; 2 h) [log10]	reduction in comparison to the control at the same time point (S. aureus KC01; 2 h) [log10]	reduction in bacterial numbers (S. aureus KC01; 6 h incubation) [log10]	numbers of bacteria versus control (S. aureus KC01; after 24 h)	rise in bacterial numbers (E. faecalis USA01; 32 and 64 μg/mL, until the 6 h time point) [log10]	reduction in CFU/mL compared to the growth control (E. faecalis USA01; 2 h) [log10]	reduction in CFU/mL compared to the original bacterial numbers (E. faecalis USA01; 2 h)	bacterial numbers versus growth control (E. faecalis USA01; at 24 h, all concentrations)	mean colony count per g of tissue, log10 (Staphylococcus aureus [4]; mice, Formulation B 20 mg/g topically every 12 hours, vehicle 6.77) [log10]	mean colony count per g of tissue (Staphylococcus aureus [4]; mice, Formulation B 20 mg/g topically every 12 hours, vehicle 5,888,436)	% reduction (of colony forming units per gram of tissue versus vehicle) (Staphylococcus aureus [4]; mouse skin wound infected with Staphylococcus aureus, topical ointment (Formulation B, 20 mg/g) every 12 hours, end of 7 day period, relative to vehicle group) [%]	Log10 (CFU/g): colony forming units per gram of tissue (Staphylococcus aureus [4]; mouse skin wound infected with Staphylococcus aureus, topical ointment (Formulation B, 20 mg/g) every 12 hours, wound tissue at end of 7 day period, group mean)	solubility [5]
CC1(C)S[C@@H]2[C@H](NC(=O)[C@H](N)c3ccccc3)C(=O)N2[C@H]1C(=O)O [Ampicillin]	0.5 to 2	–	–	–	–	–	–	–	–	–	–	–	–	–	–	–
N=C(N/N=C/c1ccc(Cl)cc1)N/N=C/c1ccc(Cl)cc1 [NCL812, 1,3-bis[(E)-(4-chlorophenyl)methyleneamino]guanidine]	–	very similar to the DNA synthesis study	2.375	≥ 2.5	> 3	≥ 2	not significantly different to the control	~1	2	greater than 1 log10	increased to almost the same level as the growth control	5.15	141,254	97.6	5.15 Log10 (CFU/g)	complete solubility
